Source: patent publication US5334587A, “Compounds, named the "Leustroducsins", their preparation and their therapeutic uses” (Sankyo Company, Limited, priority 1991, dated 1994)
≈ marks a conversion by molar mass, not a printed value.

Key:
Solubility / nature = type: physicochemical
Acute toxicity = type: in vivo, ddY mice (male)
Experimental: According to the conventional procedure, the acute toxicity was tested in five ddY mice (male).

[1] = test system: GM-CSF production by KM-102 cells; assay: Stimulation of GM-CSF production (KM-102 cells; GM-CSF assayed by growth of TF-1 cells); type: cell-based, human; settings: for EC50: Homo sapiens, 24 hours, TF-1 cell growth, read-out: ED50 for stimulation of GM-CSF production; for EC50 / induction of GM-CSF production (in words): KM-102 cells
Excerpt: (§1) The ability of the leustroducsins to stimulate the production of hematopoietic factors in accordance with the present invention can, in principle, be assayed by the method by Kohama et al. [Experimental Hematology 16, 603-608 (1988)]. In this method, a production system for various hematopoietic factors and an assay system for various hematopoietic factors are combined. KM-102 cells, for example, which originated from human bone marrow stromal cells, my be employed to produce various hematopoietic factors. However, any cells capable of the production of various hematopoietic factors may be used instead, for example primary cultured bone marrow stromal cells, vascular endothelial cells, lymphocytes, or macrophages which exist in the bone marrow. A test sample of the compound whose activity is to be assessed is diluted to a suitable concentration and added the culture system containing the cells which produce various hematopoietic factors ("HF-producing cells"). After a suitable period, usually 24 hours, a part of the supernatant of the culture medium is taken, and added to a culture system of cells which are dependent on various hematopoietic factors, for example, TF-1 cells and NFS-60 cells, ("HF-dependent cells") at a suitable concentration. After a certain time, the amount of hematopoietic factors can be measured by measuring the growth of the HF-dependent cells, and thus the ability of the compound to stimulate the production of various hematopoietic factors can be assayed. The growth of the HF-dependent cells may be determined by any conventional method, such as the incorporation of tritium-thymidine by the cells or using an MTT [3-(4,5-dimethylthiazol-2-yl)-2,5-diphenyltetrazolium bromide] assay method (Chemicon International Inc., USA). The assay of various hematopoietic factors may be carried out by any conventional method, such as the colony-forming method or the ELISA method.
Determination of the stimulation of GM-CSF production by the compounds of the present invention was carried out, in principle, using a combination of the method of Kohama et al. [Experimental Hematology 16, 603-608 (1988)] and that of Kitamura et al. [Journal of Cellular Physiology 140, 323-334 (1989)]. In more detail, KM-102 cells originating from human bone marrow stromal cells, which served as to produce GM-CSF, were mixed with a test sample solution diluted to a suitable concentration (the "GM-CSF producing system"). After incubation for 24 hours, a part of the culture supernatant was taken and was added to a culture system of GM-CSF-dependent human TF-1 cells. After between 48 and 72 hours, the amount of GM-CSF was measured by the growth of TF-1 cells (the "GM-CSF assay system") to obtain a measure of the stimulation of GM-CSF production. The growth of TF-1 cells was determined by tritium thymidine pulse-labelling for 4 hours. Similar results were obtained also by means of an MTT kit (Chemicon International Inc. USA) to assay the growth of TF-1 cells and by means of an ELISA kit (Genzyme Inc. USA) to assay the GM-CSF. Whether the GM-CSF production inducing system functioned normally or not was assayed by means of recombinant interleukin 1β (IL-1β: Genzyme Inc. USA).

[2] = test system: G-CSF production by KM-102 cells; assay: Stimulation of G-CSF production (KM-102 cells; G-CSF assayed by growth of NFS-60 cells); type: cell-based, human; settings: for EC50: Homo sapiens, 24 hours, NFS-60 cell growth, read-out: ED50 for stimulation of G-CSF production; for EC50 / induction of G-CSF production (in words): KM-102 cells
Excerpt: as §1
Stimulation of G-CSF production was assayed by a system in which the GM-CSF assay system employed inTest Example 1 was replaced by a G-CSF assay system [as described by Shirafuji et al.: Experimental Hematology 17, 116-119 (1989)]. In more detail, KM-102 cells originating from human bone marrow stromal cells, which served to produce G-CSF, were added to a leustroducsin solution diluted to a suitable concentration (the "G-CSF producing system"). After incubation for 24 hours, a part of the culture supernatant was taken, and added to a culture system of G-CSF-dependent NFS-60 cells. After between 24 and 48 hours, the amount of G-CSF was assayed from the growth of NFS-60 cells (the "G-CSF assay system") to obtain a measure of the stimulation of G-CSF production. The growth of NFS-60 cells was determined by tritium-thymidine pulse-labelling for 4 hours. Similar results were also obtained by means of an MTT kit to assay the growth of NFS-60 cells and by means of an ELISA kit to assay the G-CSF [Motojima et al.: Journal of Immunological Methods 118, 187-192 (1989)]. Whether the G-CSF production inducing system functioned normally or not was assayed by means of recombinant interleukin 1 β (IL-1β: Genzyme Inc. USA).

[3] = similarly tested, dose not separately printed

Compound | Nature (Solubility / nature) | Solubility in hexane (Solubility / nature) | Solubility in organic solvents (Solubility / nature) | Solubility in water (Solubility / nature) | acute toxicity (Acute toxicity; intraperitoneal, 0.2 mg/kg, 5 days, five mice) | EC50 [1] [µg/mL] | induction of GM-CSF production (in words) [1] | EC50 [2] [µg/mL] | induction of G-CSF production (in words) [2] | acute toxicity (Acute toxicity; [3]) | induction of GM-CSF production by IL-1β (in words) ([1]; 1 to 100 units/ml) | induction by IL-1β, printed as GM-CSF production in the G-CSF test (in words) ([2]; 1 to 100 units/ml)
CCC1C=CC(=O)OC1/C=C/C(O)(CCN)C(CC(O)/C=C\C=C/C1CCCC(OC(=O)CCCC(C)C)C1)OP(=O)(O)O (centres unmarked) [Leustroducsin A] | Acidic and fat soluble | insoluble in hexane | Soluble in alcohols, such as methanol, ethanol or butanol; and soluble in acetone, chloroform, ethyl acetate and dimethyl sulfoxide | limited solubility in water | no toxicity was observed | 0.18 | induced in a dose-dependent manner | 0.2 (≈ 0.312 µM) | induced in a dose-dependent fashion |  |  | 
CCC(C)CCCCC(=O)OC1CCCC(/C=C\C=C/C(O)CC(OP(=O)(O)O)C(O)(/C=C/C2OC(=O)C=CC2CC)CCN)C1 (centres unmarked) [Leustroducsin B] | Acidic and fat soluble | insoluble in hexane | Soluble in alcohols, such as methanol, ethanol or butanol; and soluble in acetone, chloroform, ethyl acetate and dimethyl sulfoxide | limited solubility in water |  | 0.05 | induced in a dose-dependent manner | 0.05 (≈ 0.0746 µM) | induced in a dose-dependent fashion | no toxicity was observed |  | 
CCC1C=CC(=O)OC1/C=C/C(O)(CCN)C(CC(O)/C=C\C=C/C1CCCC(OC(=O)CCCCCC(C)C)C1)OP(=O)(O)O (centres unmarked) [Leustroducsin C] | Acidic and fat soluble | insoluble in hexane | Soluble in alcohols, such as methanol, ethanol or butanol; and soluble in acetone, chloroform, ethyl acetate and dimethyl sulfoxide | limited solubility in water |  | 0.05 | induced in a dose-dependent manner | 0.05 (≈ 0.0746 µM) | induced in a dose-dependent fashion | no toxicity was observed |  | 
IL-1β: recombinant interleukin 1β (IL-1β: Genzyme Inc. USA) |  |  |  |  |  |  |  |  |  |  | induced GM-CSF production in a dose-dependent manner | induced GM-CSF production in a dose-dependent fashion
